From patent US20110269783A1, “NOVEL 2,3-DIAMINO-QUINAZOLINONE DERIVATIVES AND THEIR MEDICAL USE” (NEUROSEARCH A/S, priority 2008, published 2011)

Target: T1, human Kv7.2+3 (Homo sapiens, UniProt O43525+O43526)
T1 construct: expressed in transfected cells; host or cells: HEK293
Experiment: FLIPR-based thallium influx characterization of Kv7.2+3 modulators
Assay type: cell-based
Settings: for EC50: HEK293 cells over-expressing human Kv7.2+3, Tl+ influx, BTC-AM, FLIPR, 50% of channel activity compared to retigabine control responses; for Emax: maximal response relative to the reference (retigabine) response, HEK293 human Kv7.2+3, Tl+ influx FLIPR, read-out: Efficacy
Experimental: This experiment determines the ability of a test compound to modulate the activity of Kv7.2+3 channels heterologously expressed in human HEK293 cells. The ability is determined relative to retigabine. The activity is determined using a standard thallium (I) sensitive assay, e.g. using a fluorometric method in a Fluorescent Image Plate Reader (FLIPR) as described below in more detail.
Full concentration/response curves are generated and EC50 values are calculated based on max values. EC50 values (Effective Concentration) represent the concentration of the test substance, at which 50% of the channel activity is obtained when compared to retigabine control responses. Maximal response determined relative to the reference (retigabine) response is calculated.
Human HEK293 cells over-expressing human Kv7.2+3 are grown in culture medium (DMEM supplemented with 10% foetal bovine serum), in polystyrene culture flasks ([…]) in a humidified atmosphere of 5% CO2 in air, at 37° C. Cell confluence should be 80-90% on day of plating. Cells are rinsed with 4 ml of PBS (phosphate buffered saline) and incubated 2 min with 1 ml of Trypsin-EDTA. After addition of 25 ml of culture medium cells are re-suspended by trituration with a 25 ml pipette.
The cells are seeded at a density of ˜3×10^6 cells/ml (25 μl/well) in black-walled, clear bottom, 384-well plates pre-treated with 0.01 g/l poly-D-lysin (20 μl/well for ≧30 min). Plated cells were allowed to proliferate for 24 h before loading with dye.
BTC-AM ([…], Invitrogen) is added 25.5 μl DMSO. The BTC-AM stock solution (2 mM) is diluted to a final concentration of 2 μM in Cl^− free assay buffer (in mM: 140 Natgluconate, 2.5 K^+-gluconate, 6 Ca2^+-gluconate, 1 Mg^2+ gluconate, 5 glucose, 10 HEPES, pH 7.3) containing 2 μM ouabain, 2 mM amaranth and 1 mM tartrazine.
The culture medium is aspirated from the wells, the cells are washed thrice in Cl^− free assay buffer, and 25 μl of the BTC-AM loading solution is added to each well. The cells are incubated at 37° C. for 60 min.
After the loading period, the Tl^+-sensitive BTC fluorescence signal is measured over time using a FLIPR.
• Temperature: Room temp. • First addition: 12 μl test or control compound after 15 sec at a rate of 30 μl/sec and starting height of 20 μl • Second addition: 12 μl stimulus buffer (Cl^− free assay buffer supplemented with 1 mM Tl2SO4, 5 mM K2SO4 as well as the quenchers amaranth (2 mM) and tartrazine (1 mM)) is added after an additional 3 minutes at a rate of 30 μl/sec and starting height of 30 μl • Reading intervals: First sequence—3 sec×5, 2 sec×24 and 5 sec×25 • Second sequence—1 sec×5, 2 sec×24 and 5 sec×36
Addition plates (compound plate and stimulus plate) are placed in positions 2 and 3, respectively. Cell plates are placed in position 1 and run using the “KCNQ (two additions)” program. FLIPR will then take the appropriate measurements in accordance with the interval settings above. Fluorescence obtained after stimulation is corrected for the mean basal fluorescence (in Cl^− free assay buffer).
Full concentration/response curves are generated and EC50 values (“Effective Concentration”; the concentration at which 50% of the channel activity is obtained when compared to retigabine control responses) are calculated based on peak values. Maximal response determined relative to the reference (retigabine) response is calculated.

Compound	EC50 [nM]	Emax [%]
O=C(CCc1cccc(F)c1)Nn1c(N2CCCC2)nc2cc(F)ccc2c1=O [Compound 1.1, N-(7-Fluoro-4-oxo-2-pyrrolidin-1-yl-4H-quinazolin-3-yl)-3-(3-fluoro-phenvl)-propion-amide]	260	154
COCCN(C)c1nc2ccccc2c(=O)n1NC(=O)CCc1cccc(F)c1 [Compound 1.2, 3-(3-Fluoro-phenyl)-N-{2-[(2-methoxy-ethyl)-methyl-amino]-4-oxo-4H-quinazolin-3-yl}-propionamide]	9500	130
CN(Cc1ccccc1)c1nc2ccccc2c(=O)n1NC(=O)CCc1cccc(F)c1 [Compound 1.3, N-[2-(Benzyl-methyl-amino)-4-oxo-4H-quinazolin-3-yl]-3-(3-fluoro-phenyl)-propion-amide]	1600	118
CN(Cc1ccccc1)c1nc2ccccc2c(=O)n1NC(=O)CCc1cc(F)cc(F)c1 [Compound 1.4, N-[2-(Benzyl-methyl-amino)-4-oxo-4H-quinazolin-3-yl]-3-(3,5-difluoro-phenyl)-propionamide]	3900	40
O=C(CCc1cccc(F)c1)Nn1c(N2CCCC2)nc2ccccc2c1=O [Compound 1.5, 3-(3-Fluoro-phenyl)-N-(4-oxo-2-pyrrolidin-1-yl-4H-quinazolin-3-yl)-propion-amide]	410	148
O=C(CCc1ccccc1)Nn1c(N2CCCC2)nc2ccccc2c1=O [Compound 1.6, N-(4-Oxo-2-pyrrolidin-1-yl-4H-quinazolin-3-yl)-3-phenyl-propionamide]	660	96
CN(C)c1nc2cc(F)ccc2c(=O)n1NC(=O)CCc1cccc(F)c1 [Compound 1.7, N-(2-Dimethylamino-7-fluoro-4-oxo-4H-quinazolin-3-yl)-3-(3-fluoro-phenyl)-propionamide]	2500	112
O=C(CSc1ccccc1)Nn1c(N2CCCC2)nc2ccccc2c1=O [Compound 1.8, N-(4-Oxo-2-pyrrolidin-1-yl-4H-quinazolin-3-yl)-2-phenylsulfanyl-acetamide]	3300	103
O=C(COc1ccccc1)Nn1c(N2CCCC2)nc2ccccc2c1=O [Compound 1.9, N-(4-Oxo-2-pyrrolidin-1-yl-4H-quinazolin-3-yl)-2-phenoxy-acetamide]	12000	75
O=C(CCc1cccc(F)c1)Nn1c(N2CCCC2)nc2cccc(F)c2c1=O [Compound 1.10, N-(5-Fluoro-4-oxo-2-pyrro-lidin-1-yl-4H-quinazolin-3-yl)-3-(3-fluoro-phenyl)-propionamide]	340	100
O=C(CSc1ccc(F)cc1)Nn1c(N2CCCC2)nc2ccccc2c1=O [Compound 1.11, 2-(4-Fluoro-phenylsulfanyl)-N-(4-oxo-2-pyrrolidin-1-yl-4H-quinazolin-3-yl)-acetamide]	2200	106
O=C(CCc1cccc(F)c1)Nn1c(N2CCCC2)nc2cc(F)cc(F)c2c1=O [Compound 1.12, N-(5,7-Difluoro-4-oxo-2-pyrrolidin-1-yl-4H-quina-zolin-3-yl)-3-(3-fluoro-phenyl)-propionamide]	32	122
CC(C)(C)c1ccc(SCC(=O)Nn2c(N3CCCC3)nc3ccccc3c2=O)cc1 [Compound 1.13, 2-(4-tert-Butyl-phenyl-sulfanyl)-N-(4-oxo-2-pyrro-lidin-1-yl-4H-quinazolin-3-yl)-acetamide]	2100	41
CC(C)N(C)c1nc2cc(F)cc(F)c2c(=O)n1NC(=O)CCc1cccc(F)c1 [Compound 1.14, N-[5,7-Difluoro-2-(isopropyl-methyl-amino)-4-oxo-4H-quinazolin-3-yl]-3-(3-fluoro-phenyl)-propionamide]	450	109
O=C(CCc1cc(F)cc(F)c1)Nn1c(N2CCCC2)nc2cc(F)cc(F)c2c1=O [Compound 1.15, N-(5,7-Difluoro-4-oxo-2-pyrrolidin-1-yl-4H-quina-zolin-3-yl)-3-(3,5-difluoro-phenyl)-propionamide]	18	112
C[C@@H](CC(=O)Nn1c(N2CCCC2)nc2cc(F)cc(F)c2c1=O)c1ccccc1 [Compound 1.16, (S)-N-(5,7-Difluoro-4-oxo-2-pyrrolidin-1-yl-4H-quina-zolin-3-yl)-3-phenyl-butyr-amide]	2.8	68
CC(CC(=O)Nn1c(N2CCCC2)nc2ccccc2c1=O)c1ccc(Cl)cc1 (centres unmarked) [Compound 1.17, 3-(4-Chloro-phenyl)-N-(4-oxo-2-pyrrolidin-1-yl-4H-quinazolin-3-yl)-butyramide]	100	85
CC(CC(=O)Nn1c(N2CCCC2)nc2ccccc2c1=O)c1cccc(F)c1 (centres unmarked) [Compound 1.18, 3-(3-Fluoro-phenyl)-N-(4-oxo-2-pyrrolidin-1-yl-4H-quinazolin-3-yl)-butyramide]	15	98

Results, then the molecule that gave them:

EC50 [nM]	Emax [%]	Compound
1400	118	CN(C)c1nc2cc(F)ccc2c(=O)n1NC(=O)[C@@H]1C[C@@H]1c1ccc(Cl)cc1 (relative stereo) [Compound 2.1, cis-2-(4-Chloro-phenyl)-cyclopropanecarboxylic acid (2-dimethylamino-7-fluoro-4-oxo-4H-quinazolin-3-yl)-amide]
450	116	CC(C)N(C)c1nc2cc(F)cc(F)c2c(=O)n1NC(=O)[C@@H]1C[C@@H]1c1ccc(Cl)cc1 (relative stereo) [Compound 2.2, cis-2-(4-Chloro-phenyl)-cyclopropanecarboxylic acid [5,7-difluoro-2-(isopropyl-methyl-amino)-4-oxo-4H-quinazolin-3-yl]-amide]
830	109	O=C(Nn1c(N2CCCC2)nc2cc(F)cc(F)c2c1=O)[C@@H]1C[C@@H]1c1ccc(Cl)cc1 (relative stereo) [Compound 2.3, cis-2-(4-Chloro-phenyl)-cyclopropanecarboxylic acid (5,7-difluoro-4-oxo-2-pyrro-lidin-1-yl-4H-quinazolin-3-yl)-amide]
940	114	CCN(C)c1nc2cc(F)ccc2c(=O)n1NC(=O)[C@@H]1C[C@@H]1c1ccc(Cl)cc1 (relative stereo) [Compound 2.4, cis-2-(4-Chloro-phenyl)-cyclopropanecarboxylic acid [2-(ethyl-methyl-amino)-7-fluoro-4-oxo-4H-quinazolin-3-yl]-amide]
930	114	CC(C)N(C)c1nc2cc(F)ccc2c(=O)n1NC(=O)[C@@H]1C[C@@H]1c1ccc(Cl)cc1 (relative stereo) [Compound 2.5, cis-2-(4-Chloro-phenyl)-cyclopropanecarboxylic acid [7-fluoro-2-(isopropyl-methyl-amino)-4-oxo-4H-quinazolin-3-yl]-amide]
500	110	CCN(C)c1nc2cc(F)cc(F)c2c(=O)n1NC(=O)[C@@H]1C[C@@H]1c1ccc(Cl)cc1 (relative stereo) [Compound 2.6, cis-2-(4-Chloro-phenyl)-cyclopropanecarboxylic acid [2-(ethyl-methyl-amino)-5,7-difluoro-4-oxo-4H-quina-zolin-3-yl]-amide]
270	101	O=C(Nn1c(N2CCCC2)nc2c(F)cccc2c1=O)[C@@H]1C[C@@H]1c1ccc(Cl)cc1 (relative stereo) [Compound 2.7, cis-2-(4-Chloro-phenyl)-cyclopropanecarboxylic acid (8-fluoro-4-oxo-2-pyrrolidin-1-yl-4H-quinazolin-3-yl)-amide]
